Data on 32 compounds can be found in patent US8779158B2, “Trisubstituted pyrazoles as acetylcholine receptor modulators” (Janssen Pharmaceutica NV, priority 2008, dated 2014).

What is called EC50 is the concentration at which the effect is half-maximal.

In experiment [1] the target is T1, hα7-wt nAChR (Homo sapiens, UniProt P36544).
T1 construct: expressed in transfected cells
Description: Ca2+ flux imaging (FDSS) (Protocol B), potentiation of the choline response. Type of experiment: cell-based. To be noted: Ca2+ assay as described in D.1; for EC50: "<5" = activity did not reach a top plateau at maximal concentration. As for the experimental part: Ca^2+ Flux Imaging (FDSS) (Protocol B)
• Hanks buffered saline solution (HBSS, Invitrogen, Belgium), supplemented with 10 mM HEPES (Invitrogen, Belgium), CaCl2 to a final concentration of 5 mM, 0.1% Bovine serum albumin (Sigma-Aldrich NV, Belgium). b) Calcium-Sensitive Dye—Fluo-4AM • Fluo-4AM (Molecular Probes, USA) was dissolved in DMSO containing 10% Pluronic acid (Molecular Probes, USA) to give a stock solution which was diluted in assay buffer supplemented with 5 mM probenicid (Sigma, Aldrich NV, Belgium) to give a final concentration of 2 μM. c) 384-Well Plates • Black 384 well plate black/clear plates, PDL pre-coated (Corning, Incorporated, USA) d) Calcium Flux Measurement • A Functional drug screening system (FDSS, Hamamatsu) was used to measure intracellular free-calcium flux signals. Method
Monolayers of hα7-wt nAChR-expressing cells were grown in multi-well plates, in particular black-sided, transparent bottomed 384 well plates coated with poly-D-lysine for 24 hours prior to loading with a fluorescent calcium indicator, in a particular embodiment loading with fluo-4AM for up to 120 minutes.
PAM activity was detected in real time by applying the compounds to be tested to the loaded cells along with a α7 nicotinic receptor agonist during constant monitoring of cellular fluorescence in a FDSS. Compounds giving peak fluorescent responses greater than the response due to agonist alone, were considered to be α7 nAChR PAM's. In a particular embodiment, the α7 nicotinic receptor agonist was choline, a more particular embodiment choline applied at a sub-maximal concentration of 100 μM. In a further setting of the present invention the compounds to be tested were applied prior to the α7 nicotinic receptor agonist, in a particular embodiment up to 10 minutes prior to the agonist.
A control response to choline was calculated on each plate from the difference in peak in fluorescence in wells receiving either choline or assay buffer alone. Compounds of the present invention were tested at a concentration range from 0.01 μM to 30 μM. Compounds were considered to have an interesting activity when they potentiated the choline signal at least with 200% when tested at a concentration of 30 μM (the efficacy of 100 μM choline was defined as 100% in the absence of a PAM). An EC50 (or pEC50) was determined as a concentration relating to half the maximal effect, when a clear sigmoidal curve with top plateau was obtained.

For experiment [2], the target named is T2, hα7-wt nAChR-expressing GH4C1 cells (Homo sapiens, UniProt P36544).
T2 construct: expressed in transfected cells
Briefly: Patch-clamp current recording (whole-cell voltage clamp), potentiation of the choline current and PAM type. As to conditions: 1 mM choline. Format: cell-based. Also on record: key: Type 0 compounds minimally enhance the effect size of the current elicited by 1 mM choline.; Type 1 compounds enhance the effect size of the current elicited by 1 mM choline but minimally alter the kinetics of the receptor.; Type 2 compounds enhance the effect size of the current elicited by 1 mM choline while reducing the rate and/or the extent of desensitization.; Type 3 compounds enhance the effect size of the current elicited by 1 mM choline. When tested at higher concentrations up to 10 μM they completely inhibit desensitization, in particular a 1 mM choline application of 250 milliseconds.; Type 4 compounds allow for an initial desensitization of the receptor followed by a re-opening of the receptor during agonist application. As for the experimental part: The compounds of the present invention are classified as type 1-4, based on qualitative kinetic properties, as determined by whole-cell voltage-clamp recordings. This classification is based on the effect of an α7 PAM compound, as described hereinbefore, on the signal elicited by an agonist application. In particular, said agonist is choline at a concentration of 1 mM. In a preferred experimental setting, said α7 PAM compound and choline are simultaneously applied to the cell, as described hereinafter. Desensitization is defined as the closure of the receptor upon activation during the application of the agonist in whole-cell voltage-clamp electrophysiology measurements seen as the reduction of the […] current after initial activation by the agonist.
The definition of the PAM types 1-4 is described hereinafter: • Type 0 compounds minimally enhance the effect size of the current elicited by 1 mM choline. • Type 1 compounds enhance the effect size of the current elicited by 1 mM choline but minimally alter the kinetics of the receptor. In particular, the rate and the extent of desensitization, elicited by the agonist, is not affected. The compound-modulated response to 1 mM choline, therefore, is a close to linear scaling of the 1 mM choline response in absence of the α7 PAM compound. • Type 2 compounds enhance the effect size of the current elicited by 1 mM choline while reducing the rate and/or the extent of desensitization. • Type 3 compounds enhance the effect size of the current elicited by 1 mM choline. […] At low-potency concentrations of the α7 PAM compound, the agonist-induced activation, which is followed by desensitization, can still be separated from the compound-induced re-opening as an initial inward current-maximum. At higher potency concentrations of the α7 PAM compound, the re-opening occurs faster than the closure due to desensitization so that the initial current-maximum disappears.
A compound was considered to have interesting PAM-like activity when the potentiation of the peak current was at least 200% compared to the control choline response (=100%). Such compounds are classified as belonging to a particular PAM type in the Experimental Part. Compounds not meeting the condition are not classified as belonging to a particular PAM-type.
The compounds also have a potentiating effect on the response to choline when measured by whole-cell patch clamp electrophysiology in GH4C1 cells stably over-expressing the human wild-type α7 receptor.
Patch-Clamp Current Recording
Patch-clamp recording from mammalian cells has provided a powerful means of assessing the function of membrane-bound proteins thought to be subunits of ligand-gated ion channels. Activation of such proteins by endogenous or exogenous ligands cause opening of a pore associated with the receptor through which ions flow down their electrochemical gradient. In the case of the hα7-wt nAChR-expressing GH4C1 recombinant cell line the preferential permeability to calcium of this receptor means that calcium flows into the cell upon activation by ACh, choline and other nicotinic ligands giving rise to a calcium current. Since this receptor rapidly desensitizes in the presence of agonist it is important an application system is used which is capable of very rapid switching of solutions (<100 ms) to prevent partial or full desensitisation of receptor responses coincident with the time of agonist application. Consequently, a second convenient technique to assess the enhancement of nicotinic efficacy is patch-clamp recording from hα7-wt nAChR-expressing GH4C1 cells coupled with a rapid-application system.
• The external recording solution consisted of 152 mM NaCl, 5 mM KCl, 1 mM MgCl2, 1 mM Calcium, 10 mM HEPES; pH 7.3. […]
(In general: In patch-clamp work, channel activity is measured electrically.)

Molecules are shown by their SMILES.

T1 sequence (P36544 23-502): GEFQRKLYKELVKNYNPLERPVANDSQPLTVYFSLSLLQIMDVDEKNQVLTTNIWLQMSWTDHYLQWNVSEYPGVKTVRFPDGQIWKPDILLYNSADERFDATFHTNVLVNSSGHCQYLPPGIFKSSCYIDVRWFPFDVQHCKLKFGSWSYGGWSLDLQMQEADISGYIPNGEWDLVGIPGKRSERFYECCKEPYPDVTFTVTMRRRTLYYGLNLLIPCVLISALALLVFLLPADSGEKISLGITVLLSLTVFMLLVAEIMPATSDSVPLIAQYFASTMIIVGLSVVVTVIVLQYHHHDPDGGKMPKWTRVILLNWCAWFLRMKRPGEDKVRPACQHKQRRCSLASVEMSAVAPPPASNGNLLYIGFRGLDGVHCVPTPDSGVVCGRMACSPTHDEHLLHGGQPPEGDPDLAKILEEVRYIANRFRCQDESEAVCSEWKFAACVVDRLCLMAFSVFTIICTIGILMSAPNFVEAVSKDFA
T2 sequence (P36544 23-502): as above

For the compound `CCNC(=O)Cn1nc(Nc2ccc3c(c2)OC(F)(F)O3)cc1-c1cc(C)nc(C)c1` [compound 153], the half-maximal effective concentration (EC50) in experiment [1] was 417 nM. Also, the Emax in experiment [1] (read-out: % Efficacy) was 737%. The PAM type in experiment [2] was determined as 2. For `CCNc1cc(-c2cc(Nc3cc(F)cc(F)c3)nn2C[C@@H](O)CC)ccn1` [compound 8, (alphaS)-3-[(3,5-difluorophenyl)amino]-alpha-ethyl-5-[2-(ethylamino)-4-pyridinyl]-1H-pyrazole-1-ethanol] the same measures were 955 nM, 1000% and 1.

As to `CCNC(=O)Cn1nc(Nc2cc(OC)cc(C(F)(F)F)c2)cc1-c1ccnc(C)c1C` [compound 51], the EC50 in experiment [1] was 3310 nM. In experiment [2], the PAM type is 2. With `COc1cc(Cl)cc(Nc2cc(-c3ccnc(C)c3)n(CC(=O)NC3CC3)n2)c1` [compound 110], in experiment [1], the EC50 is 1780 nM. Moreover, the PAM type in experiment [2] is given as 2.

On to `CC[C@H](O)Cn1nc(Nc2cc(F)cc(F)c2)cc1-c1ccnc(COC)c1` [compound 71], for which, in experiment [1], the EC50 is 1380 nM. In addition, the Emax in experiment [1] (read-out: % Efficacy) worked out at 700%. Also, the PAM type in experiment [2] worked out at 1. As for `CC[C@H](O)Cn1nc(Nc2cc(OC)cc(C(F)(F)F)c2)cc1-c1ccnc(C)c1` [compound 183], in experiment [1], the EC50 is 794 nM. Moreover, in experiment [2], the PAM type is reported as 0.

As for `CC[C@H](O)Cn1nc(Nc2cc(OC)cc(C(F)(F)F)c2)cc1-c1ccnc(C)c1C` [compound 53], the EC50 in experiment [1] was 1070 nM. Also, the Emax in experiment [1] (read-out: % Efficacy) amounted to 482%. In experiment [2], the PAM type came to 0.

For `CCNC(=O)Cn1nc(Nc2ccc(F)c(C(F)(F)F)c2)cc1-c1ccnc(C)c1` [compound 38], in experiment [1], the EC50 is 575 nM. In addition, the PAM type in experiment [2] is listed as 2. In the case of `Cc1cc(-c2cc(Nc3cccc(Cl)c3F)nn2CCC(=O)N(C)C)cc(C)n1` [compound 173], the EC50 in experiment [1] is 135 nM. Also, the Emax in experiment [1] (read-out: % Efficacy) was 401%. For the same compound, in experiment [2], the PAM type is given as 1. Turning to `CCNC(=O)Cn1nc(Nc2cccc(OC(F)(F)F)c2)cc1-c1cccnc1` [compound 17], the EC50 in experiment [1] was > 10000 nM. For the compound `CC[C@H](O)Cn1nc(Nc2cc(OC)cc(C(F)(F)F)c2)cc1-c1ccnc(COC)c1` [compound 99], in experiment [1], the EC50 is 955 nM. As to `Cc1cc(-c2cc(Nc3ccc(F)c(C(F)(F)F)c3)nn2CC(=O)NC2CC2)cc(C)n1` [compound 159], the EC50 in experiment [1] is 457 nM. Moreover, the Emax in experiment [1] (read-out: % Efficacy) was 842%. `CNC(=O)Cn1nc(Nc2cccc(Cl)c2F)cc1-c1cc(C)nc(C)c1` [compound 141]: the EC50 in experiment [1] was 562 nM. The Emax in experiment [1] (read-out: % Efficacy) worked out at 519%. For `Cc1cc(-c2cc(Nc3cccc(Cl)c3F)nn2CC(=O)NC2CCC2)cc(C)n1` [compound 175] the same measures were 126 nM and 462%. For the compound `CNC(=O)Cn1nc(Nc2cc(OC)cc(C(F)(F)F)c2)cc1-c1cc(C)nc(C)c1` [compound 105], in experiment [1], the EC50 is 3160 nM. Regarding `CCNC(=O)Cn1nc(Nc2cccc(OC(F)(F)F)c2)cc1-c1ccc2c(c1)OCCO2` [compound 80], the EC50 in experiment [1] was 204 nM.

Take `CNC(=O)Cn1nc(Nc2cc(F)c(F)c(F)c2)cc1-c1cccnc1` [compound 15]: the EC50 in experiment [1] was > 10000 nM. In addition, the Emax at 30 µM in experiment [1] (@ 30 μM, read-out: % Efficacy) is 832%. On to `CN(C)C(=O)CCn1nc(Nc2ccc(F)c(F)c2)cc1-c1ccc2c(c1)OCCO2` [compound 84], for which, in experiment [1], the EC50 is 51.3 nM.

For `Cc1cc(-c2cc(Nc3ccc(F)c(F)c3)nn2CC(=O)NC2CC2)cc(C)n1` [compound 160], the EC50 in experiment [1] is 525 nM. Besides, the Emax in experiment [1] (read-out: % Efficacy) came out at 927%. Turning to `Cc1cc(-c2cc(Nc3cccc(C(F)(F)F)c3)nn2CC(=O)NC2CCC2)cc(C)n1` [compound 144], in experiment [1], the EC50 was 437 nM. Also, the Emax in experiment [1] (read-out: % Efficacy) came out at 444%. In the case of `Cc1cc(-c2cc(Nc3ccc(F)c(C(F)(F)F)c3)nn2CC(=O)NC2CCC2)cc(C)n1` [compound 174], the EC50 in experiment [1] was 219 nM. For the same compound, the Emax in experiment [1] (read-out: % Efficacy) came to 651%.

For the compound `CCNC(=O)Cn1nc(Nc2cc(F)c(F)c(F)c2)cc1-c1cc(C)nc(C)c1` [compound 167], the EC50 in experiment [1] was 263 nM. The Emax in experiment [1] (read-out: % Efficacy) turned out to be 762%. Consider `Cc1cc(-c2cc(Nc3cc(F)c(F)c(F)c3)nn2CC(=O)NC2CCC2)cc(C)n1` [compound 179], for which, in experiment [1], the EC50 was 115 nM. Moreover, the Emax in experiment [1] (read-out: % Efficacy) is 793%.

With `Cc1cc(-c2cc(Nc3cccc(C(F)(F)F)c3)nn2CC(=O)NC2CC2)cc(C)n1` [compound 150], the EC50 in experiment [1] is 525 nM. Besides, in experiment [1] (read-out: % Efficacy), the Emax was 568%. Turning to `CNC(=O)Cn1nc(Nc2cc(F)c(F)c(F)c2)cc1-c1cc(C)nc(C)c1` [compound 127], the concentration for a half-maximal effect (EC50) in experiment [1] was 1020 nM. The Emax in experiment [1] (read-out: % Efficacy) is 616%. Turning to `CCNC(=O)Cn1nc(Nc2ccc3c(c2)OC(F)(F)O3)cc1-c1ccc2c(c1)OCCO2` [compound 98], the EC50 in experiment [1] is 324 nM. On to `Cc1cc(-c2cc(Nc3cccc(C(F)(F)F)c3)nn2CCC(=O)N(C)C)cc(C)n1` [compound 178], for which the EC50 in experiment [1] was 550 nM. Besides, the Emax in experiment [1] (read-out: % Efficacy) was 627%. `COc1cc(Nc2cc(-c3cc(C)nc(C)c3)n(CC(=O)NC3CCC3)n2)cc(C(F)(F)F)c1` [compound 162]: the EC50 in experiment [1] was 437 nM. Moreover, in experiment [1] (read-out: % Efficacy), the Emax turned out to be 750%. `CCNc1cc(-c2cc(Nc3ccc(F)c(F)c3)nn2C[C@H](C)O)cc(C)n1` [compound 66]: the EC50 in experiment [1] was > 10000 nM. As to `CC[C@H](O)Cn1nc(Nc2ccc(F)c(C(F)(F)F)c2)cc1-c1ccc(C)nc1` [compound 29], the EC50 in experiment [1] was 1120 nM. Further, the Emax in experiment [1] (read-out: % Efficacy) amounted to 500%. In the same order, the values of `CNC(=O)Cn1nc(Nc2ccc(F)c(F)c2F)cc1-c1cc(C)nc(C)c1` [compound 120] are 1150 nM and 969%.

For the compound `CNC(=O)Cn1nc(Nc2cc(F)cc(C(F)(F)F)c2)cc1-c1ccncc1C` [compound 30], the EC50 in experiment [1] is > 10000 nM.
